Square brackets hold non-standard residues; d marks the D form. Ends that are not written are not given here. Peptide text beside a SMILES is read from it. hArg = N=C(N)NCCCC[C@H](N)C(=O)O; Aib = CC(C)(N)C(=O)O
Experiments:
PTHR1GFP = experiment: cAMP induction in HEK293 cells stably expressing PTHR1GFP; format: cell-based, human
Description: The GFP-PTHR1 fusion was stably expressed in cells that respond to receptor engagement by activation of a cAMP-sensitive version of luciferase. Exposure of these transfectants to PTH(1-11) yielded the expected dose-response curve with half maximal stimulation at ˜200 nM.
(§1) Measurement of cAMP response. These assays were performed as previously described^27. Briefly, HEK-293-derived cell lines that stably express the Glosensor cAMP reporter (Promega Corp.)^30 and PTHR1, a PTHR1 variant, or PTHR2 were seeded into white sided 96 well plates (50,000 cells/well) and grown to confluency. Confluent monolayers of cells were pre-incubated with CO2 independent medium containing D-luciferin (0.5 mM) at 37° C. until a stable baseline level of luminescence was established (20 min). Varying concentrations of ligands were then added, and the time course of luminescence response was recorded using BioTek plate reader. The maximal luminescence response (observed 12-16 min after ligand addition) was used to construct dose-response data sets (Table 4, FIGS. 22A to 22E).
(§2) Data calculations. Data were processed using Microsoft Excel and GraphPad Prism 6. Data from cAMP dose-response assays were analyzed using a sigmoidal dose-response model with variable slope. Data sets were statistically compared by using Student's t test (two-tailed) assuming unequal variances for the two sets.
(§3) While there is no structural information for any VHH bound to PTHR1, a mode of interaction was envisioned between the receptor and VHH-PTH conjugates like that depicted in FIG. 12—Panel c. The portion of PTHR1 encoded by exon 2 is not resolved in structural studies (FIG. 12—Panel d)^13, 14, 17, is not important for ligand binding^18, and in past work has been targeted as a site for receptor modification^18, 19. A construct was generated that encodes a PTHR1 variant in which a 14-residue fragment from exon 2 was replaced with a 14-mer epitope tag from the intracellular protein UBC6e (PTHR16E, FIG. 12—Panel d)^20. A receptor construct in which a pH-sensitive green fluorescent protein variant (GFP) was inserted into the portion of the receptor encoded by exon 2 (PTHR1GFP in FIGS. 17A to 17C)^19. Another version of PTHR1 in which yellow fluorescent protein (YFP) replaces the entire extracellular domain (PTHR1YFPΔECD, FIG. 12—Panel e)^21, was also used.

PTHR2 [1] = target: T1, PTHR2 (Homo sapiens, UniProt P49190); experiment: cAMP induction in HEK293 cells stably expressing human PTHR2; format: cell-based
T1 construct: expressed in transfected cells
Description: (§4) Measurement of cAMP response. These assays were performed as previously described^27. […] Confluent monolayers of cells were pre-incubated with CO2 independent medium containing D-luciferin (0.5 mM) at 37° C. until a stable baseline level of luminescence was established (20 min). Varying concentrations of ligands were then added, and the time course of luminescence response was recorded using BioTek plate reader.
as §2

human PTHR1 = target: T2, human PTHR1 (Homo sapiens, UniProt Q03431); experiment: cAMP induction (cAMP-responsive luciferase) in HEK293 cells stably expressing human PTHR1; format: cell-based
T2 construct: expressed in transfected cells
T2 sequence (Q03431 27-593): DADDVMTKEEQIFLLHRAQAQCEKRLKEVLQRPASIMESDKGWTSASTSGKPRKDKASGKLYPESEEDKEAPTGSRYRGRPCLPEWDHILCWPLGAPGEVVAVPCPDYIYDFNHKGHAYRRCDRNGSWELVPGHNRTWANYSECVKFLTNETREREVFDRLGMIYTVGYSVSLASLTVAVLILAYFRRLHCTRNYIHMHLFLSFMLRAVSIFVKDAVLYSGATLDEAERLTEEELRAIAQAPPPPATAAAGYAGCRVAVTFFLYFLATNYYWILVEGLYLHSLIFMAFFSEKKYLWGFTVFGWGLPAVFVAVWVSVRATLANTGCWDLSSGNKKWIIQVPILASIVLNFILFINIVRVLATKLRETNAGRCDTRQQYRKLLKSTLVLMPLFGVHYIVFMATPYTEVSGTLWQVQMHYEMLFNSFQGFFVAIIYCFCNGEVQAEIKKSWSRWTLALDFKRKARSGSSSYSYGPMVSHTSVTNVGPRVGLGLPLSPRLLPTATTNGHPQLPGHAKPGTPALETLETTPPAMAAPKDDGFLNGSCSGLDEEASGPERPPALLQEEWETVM
Description: as §4, §2

PTHR16E = target: T3, PTHR16E (Homo sapiens, UniProt Q03431, A83I/D81R/G76A/K80A/K82Q/P78E/R79L/S71Q/S73D/S75E/T74Q); experiment: cAMP induction in HEK293 cells stably expressing PTHR16E (6E/Ubc6e epitope tag in exon 2 segment); format: cell-based
T3 construct: expressed in transfected cells
T3 sequence (Q03431 27-593 S71Q/S73D/T74Q/S75E/G76A/P78E/R79L/K80A/D81R/K82Q/A83I): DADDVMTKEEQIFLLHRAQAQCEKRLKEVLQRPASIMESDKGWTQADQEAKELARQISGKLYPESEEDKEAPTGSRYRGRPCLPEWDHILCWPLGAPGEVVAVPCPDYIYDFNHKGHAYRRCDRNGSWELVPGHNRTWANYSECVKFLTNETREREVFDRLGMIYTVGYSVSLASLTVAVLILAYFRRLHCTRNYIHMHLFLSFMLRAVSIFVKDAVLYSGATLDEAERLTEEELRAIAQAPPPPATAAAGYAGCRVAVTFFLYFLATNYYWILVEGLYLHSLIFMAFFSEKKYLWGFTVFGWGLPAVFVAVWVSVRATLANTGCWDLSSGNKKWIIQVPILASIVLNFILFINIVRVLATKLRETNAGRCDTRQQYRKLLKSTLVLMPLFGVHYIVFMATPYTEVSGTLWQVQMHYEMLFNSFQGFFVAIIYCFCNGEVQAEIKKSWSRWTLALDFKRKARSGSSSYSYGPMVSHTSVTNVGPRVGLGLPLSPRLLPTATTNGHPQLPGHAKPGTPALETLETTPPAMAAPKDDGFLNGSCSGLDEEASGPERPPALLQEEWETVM
Description: as §1, with “reader.” for “reader. The maximal luminescence response (observed 12-16 min after ligand addition) was used to construct dose-response data sets (Table 4, FIGS. 22A to 22E).”
as §2
as §3, with “The” for “While there is no structural information for any VHH bound to PTHR1, a mode of interaction was envisioned between the receptor and VHH-PTH conjugates like that depicted in FIG. 12—Panel c. The”

PTHR1YFPΔECD = experiment: cAMP induction in HEK293 cells stably expressing PTHR1YFPΔECD (YFP replaces extracellular domain); format: cell-based, human
Description: as §1, with “reader.” for “reader. The maximal luminescence response (observed 12-16 min after ligand addition) was used to construct dose-response data sets (Table 4, FIGS. 22A to 22E).”
as §2
as §3, with “The” for “While there is no structural information for any VHH bound to PTHR1, a mode of interaction was envisioned between the receptor and VHH-PTH conjugates like that depicted in FIG. 12—Panel c. The”

Mice (CD1 female) = experiment: Calcemic response: blood ionized calcium in mice after subcutaneous injection; format: in vivo, mouse; details: 35 nmol/kg subcutaneous, n=4
Description: Animal experiments and measurement of in vivo response. Mice (CD1 female, age 11 weeks) were treated in accordance with the ethical guidelines adopted by Massachusetts General Hospital. […] Peptides and conjugates were administered at doses that allowed for differentiation between compounds with differing levels of in vivo activity^27. Statistical analyses were performed assuming Gaussian distribution of data. Mice (n=4 per compound) were injected subcutaneously with vehicle (10 mM citric acid/150 mM NaCl/0.05% Tween-80, pH 5.0) or vehicle containing PTH or conjugate at a dose of 35 nmol/kg body weight. […] Blood was withdrawn just before injection (t=0) or at times thereafter. Tail vein blood was collected and immediately analyzed. Blood Ca^2+ concentration was measured with a Siemens RapidLab 348 Ca2+/pH analyzer.

PTHR2 [2] = target: T1, PTHR2; experiment: Flow cytometry staining by VHH-Alexafluor647 of HEK293 cells expressing PTHR2; format: binding; details: 100 nM VHH
Description: Flow cytometry. Suspensions of cells in PBS were stained for 1 hour on ice in the presence of indicated concentrations of VHH probes functionalized with Alexafluor647. Cells were pelleted by centrifugation and washed with PBS prior to analysis by flow cytometry (BD Accuri C6). Gating was performed on forward scatter/side scatter profiles to analyze intact cells. Data was analyzed using FlowJo version 7.6. The median fluorescent intensity (MFI) of stained cells was used to generate VHH binding dose response curves (FIG. 20).

[3] = maximal cAMP response, normalized
[4] = mean ± SD, Inactive = response <5% of maximal

T1 sequence (P49190 25-550): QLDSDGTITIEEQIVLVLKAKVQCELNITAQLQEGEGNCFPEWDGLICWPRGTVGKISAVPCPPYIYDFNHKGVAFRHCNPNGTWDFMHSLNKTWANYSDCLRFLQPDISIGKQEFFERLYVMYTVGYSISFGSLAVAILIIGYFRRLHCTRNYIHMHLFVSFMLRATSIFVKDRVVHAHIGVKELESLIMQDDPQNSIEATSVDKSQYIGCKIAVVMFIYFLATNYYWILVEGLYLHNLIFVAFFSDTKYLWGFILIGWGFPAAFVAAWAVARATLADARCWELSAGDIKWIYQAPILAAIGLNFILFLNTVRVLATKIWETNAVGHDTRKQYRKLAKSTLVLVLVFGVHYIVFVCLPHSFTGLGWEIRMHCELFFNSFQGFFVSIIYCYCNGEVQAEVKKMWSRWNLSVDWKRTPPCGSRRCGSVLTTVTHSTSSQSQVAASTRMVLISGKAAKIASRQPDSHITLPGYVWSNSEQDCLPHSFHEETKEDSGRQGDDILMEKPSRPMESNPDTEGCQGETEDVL

CC[C@H](C)[C@H](NC(=O)[C@H](CCC(=O)O)NC(=O)C(C)(C)NC(=O)[C@@H](NC(=O)[C@H](C)N)C(C)C)C(=O)N[C@@H](CCC(N)=O)C(=O)N[C@@H](CC(C)C)C(=O)N[C@@H](CCSC)C(=O)N[C@@H](Cc1c[nH]cn1)C(=O)N[C@@H](CCC(N)=O)C(=O)N[C@@H](CCCNC(=N)N)C(=O)N[C@@H](C)C(=O)N[C@@H](CCCCN)C(=O)N[C@@H](Cc1c[nH]c2ccccc12)C(=O)N[C@@H](CS)C(N)=O [PTH(1-14)] (H-AV[Aib]EIQLMHQRAKWC-NH2)
Max (normalized ± SD), hPTHR1GFP (PTHR1GFP; [3]): 1.09 ± 0.03
EC50 (PTHR1GFP; mean ± SD, Inactive = response <5% of maximal, read-out: EC50, cAMP induction, hPTHR1GFP): 2.3 ± 1.2 nM
activation of human PTHR2 (in words) (PTHR2 [1]): activated
Max (normalized ± SD), hPTHR2 (PTHR2 [1]; [3]): 1.14 ± 0.28
EC50 (PTHR2 [1]; mean ± SD, read-out: EC50, cAMP induction, hPTHR2): 924 ± 328 nM
activation of wild-type human PTHR1 (in words) (human PTHR1): activated
Max (normalized ± SD), hPTHR1 (human PTHR1; [3]): 1.01 ± 0.07
EC50 (human PTHR1; mean ± SD, Inactive = response <5% of maximal response at that concentration, read-out: EC50, cAMP induction, hPTHR1): 4.3 ± 2 nM
Max (normalized ± SD), hPTHR16E (PTHR16E; [3]): 1.06 ± 0.12
Max (normalized ± SD), hPTHR1YFPΔECD (PTHR1YFPΔECD; [3]): 0.96 ± 0.04
EC50 (PTHR1YFPΔECD; mean ± SD, Inactive = response <5% of maximal, read-out: EC50, cAMP induction, hPTHR1YFPΔECD): 1.1 ± 0.9 nM

TIP 39
activation of human PTHR2 (in words) (PTHR2 [1]): activated

modified N-terminal PTH fragment with Aib3, amide; probably AV(Aib)EIQLMH (SEQ ID NO: 86) [PTH(1-9)]
EC50, cAMP induction, hPTHR1GFP (PTHR1GFP; [4]): Inactive at 10,000 nM
EC50, cAMP induction, hPTHR1 (human PTHR1; mean ± SD, Inactive = response <5% of maximal response at that concentration): Inactive at 10,000 nM
EC50, cAMP induction, PTHR16E (PTHR16E; [4]): Inactive at 10,000 nM
activation of PTHR1 with ECD replaced by fluorescent protein (in words) (PTHR1YFPΔECD): inactive alone
EC50, cAMP induction, hPTHR1YFPΔECD (PTHR1YFPΔECD; [4]): Inactive at 10,000 nM

M-PTH(1-14): UVUEIQLMHQXAKW (SEQ ID NO: 90) where U is Aib and X is homoarginine ([Aib]V[Aib]EIQLMHQ[hArg]AKW; not fully specified (C-terminus))
blood ionized calcium response (Mice (CD1 female)): little if any activity

B1: VHH6E: nanobody that recognizes a 14-mer peptide from UBC6e (…), SEQ ID NO: 71 (protein)
VHH: QVQLQESGGGLVQPGGSLRLSCAASGFVFENSAMAWYRQAPGKERELIAVIGTTFIKLAESVKGRFTISRDNAKSTVYLQMNNLKPEDTAVYYCSKSGAYWGQGTQVTVSSLPETGG
binding to PTHR2 (in words) (PTHR2 [2]): lack of binding

B2: VHH05-PTH(1-34): PTH(1-34)-Cys conjugated to nanobody VHH05 (conjugate)
VHH: QVQLQESGGGLVQPGGSLRLSCAASGFVFENSAMAWYRQAPGKERELIAVIGTTFIKLAESVKGRFTISRDNAKSTVYLQMNNLKPEDTAVYYCSKSGAYWGQGTQVTVSS
peptide: SVSEIQLMHNLGKHLNSMERVEWLRKKLQDVHNFC
activation of wild-type human PTHR1 (in words) (human PTHR1): activates

Reference: US11878063B2, “Engineered ligands and uses thereof” (Children's Medical Center Corporation, priority 2019, dated 2024)
